From paper PMC12076188 (Cancer Research Communications, 2025) come the findings set out here.

Read-outs that look alike come from different tables or passages of the source.

The target in assay [1] is T1, GppNp-bound NRAS WT (Homo sapiens, UniProt P01111).
T1 construct: His-tagged NRAS WT (aa 1–172); made in house; host or cells: Escherichia coli
Description: GppNp-loaded RAS and cRAF interaction assay (HTRF). It is filed as biochemical. A general note: Time-resolved FRET reads energy transfer from a long-lived donor to a nearby acceptor.

Assay [2] deals with T2, GDP-bound NRAS WT (Homo sapiens, UniProt P01111).
T2 construct: His-tagged NRAS WT (aa 1–172); made in house; host or cells: Escherichia coli
Description: SOS1-mediated guanine nucleotide exchange assay (TR-FRET). It is filed as biochemical.

Assay [3] deals with CR6256 PDX tumors rebounding after sotorasib treatment. Description: PDX study on tumors regrown under sotorasib. The class given is in vivo, mice. The conditions noted are these: after 63 days of 100 mg/kg sotorasib; then 100 mg/kg sotorasib, 100 mg/kg glecirasib, 50 mg/kg cetuximab or combination.
The target in assay [4] is T3, GDP-bound HRAS WT (Homo sapiens, UniProt P01112).
T3 construct: His-tagged HRAS WT (aa 1–166); made in house; host or cells: Escherichia coli
Description: SOS1-mediated guanine nucleotide exchange assay (TR-FRET). The class given is biochemical. As to conditions: GDP-bound HRAS WT; compound pre-incubation 25°C, 60 min; read-out: IC50.

Assay [5] concerns the target T4, GppNp-bound HRAS WT (Homo sapiens, UniProt P01112).
T4 construct: His-tagged HRAS WT (aa 1–166); made in house; host or cells: Escherichia coli
The assay can be described thus: GppNp-loaded RAS and cRAF interaction assay (HTRF). The conditions noted are these: GppNp-bound HRAS WT and cRAF RBD interaction; read-out: IC50. It is filed as biochemical.

For assay [6], the system named is Ba/F3 cells carrying HRAS p.G12C. Description: Ba/F3-engineered cell line viability. It is filed as cell-based. The conditions noted are these: Mus musculus, BaF3, 144 h; Ba/F3 HRAS p.G12C; 6 days of treatment; read-out: Cell viability IC50. On the procedure:
(§1) The inhibitory activity of compounds on Ba/F3-engineered cell line viability was tested by Kyinno Biotechnology. Other cell viability assays on human cancer cell lines were conducted in-house. Cells were seeded in 96-well plates and incubated overnight, followed by treatment with various concentrations of compounds or solvent control for 6 days. Cell viability was detected using either the CellTiter-Glo (CTG) luminescent cell viability assay or the CTG 3D cell viability assay (Promega) for 2D and 3D CTG assays, respectively. […] The cell density is indicated in Supplementary Table S3.

The subject of assay [7] is Ba/F3 cells carrying NRAS p.G12C. The assay can be described thus: Ba/F3-engineered cell line viability. It is filed as cell-based. The conditions noted are these: Mus musculus, BaF3, 144 h; Ba/F3 NRAS p.G12C; 6 days of treatment; read-out: Cell viability IC50. The method, then: as §1
The subject of assay [8] is NCI-H1373 lung cancer xenograft. Description: Cell line–derived xenograft study. The class given is in vivo, BALB/c-nu mice. As to conditions: NCI-H1373 lung cancer xenograft model; single agents or combination, orally once a day. From the text: Female BALB/c nude mice (CAnN.Cg-Foxn1^nu/Crl, RRID: IMSR_CRL:194) were obtained from Beijing Vital River Laboratory Animal Technology Co., Ltd. Female BALB/c-nu mice (BALB/cAnSlacNifdc-nu) were obtained from SPF (Beijing) Biotechnology Co., Ltd. Female NCG mice (NOD/ShiLtJGpt-Prkdc^em26Cd52Il2rg^em26Cd22/Gpt) were obtained from GemPharmatech. Subcutaneous tumors were induced by injecting cells in PBS containing 50% BD Matrigel (Corning) in the right flank of female BALB/c-nu mice (NCI-H1373, 5 × 10^6 cells), female BALB/c nude mice (MIA PaCa-2, 1 × 10^7 cells), or female NCG mice (NCI-H358, 5 × 10^6 cells).

T1 sequence (P01111 1-172): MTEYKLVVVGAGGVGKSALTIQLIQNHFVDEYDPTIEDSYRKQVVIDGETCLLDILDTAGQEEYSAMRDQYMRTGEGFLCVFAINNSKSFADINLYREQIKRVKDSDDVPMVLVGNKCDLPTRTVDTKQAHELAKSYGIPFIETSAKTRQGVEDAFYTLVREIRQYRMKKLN
T2 sequence (P01111 1-172): as above
T3 sequence (P01112 1-166): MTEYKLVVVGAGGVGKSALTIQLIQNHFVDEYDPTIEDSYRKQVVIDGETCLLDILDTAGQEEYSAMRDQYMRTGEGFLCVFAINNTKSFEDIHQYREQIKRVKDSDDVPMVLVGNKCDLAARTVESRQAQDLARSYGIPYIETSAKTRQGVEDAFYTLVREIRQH
T4 sequence (P01112 1-166): as above

As usually defined, the IC50 is the concentration that inhibits the measured activity by half. Turning to `C=C(F)C(=O)N1CCN(c2nc(OC[C@@H]3CCCN3C)nc3c2CCN(c2cccc4cccc(Cl)c24)C3)C[C@@H]1CC#N` [Adagrasib], the concentration for half-maximal inhibition (IC50) in assay [1] and in assay [2] was over 10 µM in each case.

For `C=CC(=O)N1CCN(c2nc(=O)n(-c3c(C)ccnc3C(C)C)c3nc(-c4c(O)cccc4F)c(F)cc23)[C@@H](C)C1` [Sotorasib, reference compound], the 50% inhibitory concentration (IC50) in assay [1] (GppNp-bound NRAS WT and cRAF RBD interaction, read-out: IC50) was over 10 µM; in assay [4] it was over 10 µM; in assay [5], over 10 µM; in assay [2] (GDP-bound NRAS WT, compound pre-incubation 25°C, 60 min, read-out: IC50), over 10 µM; in assay [6], 0.0271 µM; in assay [7] it was 0.0147 µM. Moreover, the “tumor response of rebound tumors” value in assay [3] is reported as “continued to grow”.

The TGI is the reduction of tumour growth relative to the control group. `Nc1nccc(Sc2cnc(N3CCC4(CC3)Cc3ncccc3[C@H]4N)cn2)c1Cl` [JAB-3312]: the tumour growth inhibition (TGI) in assay [8] was found to be 64%.
